Assay results as given in patent publication US11046686B2, “Thiadiazole IRAK4 compounds” (Gilead Sciences, Inc., priority 2018, dated 2021).
Read-outs that look alike come from different tables or passages of the source.

Tests used:
[1] = test system: TNFα; assay: IRAK4 Monocyte TNFα Cell Based Assay; set-up: species or system human; details: read-out: EC50 MONO TNF HTRF
Outline: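 TNFα release quantified by HTRF (cryptate/XL665 antibody pair, overnight at RT) after 1 h compound pre-incubation (0.1% DMSO) and 4 h LPS challenge at 50 pg/ml, 37 °C, 5,000 monocytes per well. Signal ratio normalised between unstimulated (0%) and stimulated (100%) controls.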

[2] = molecular target: IRAK4 enzyme (Homo sapiens (Human), UniProt Q9NWZ3); assay: IRAK4 Biochemical Assay (TR-FRET, STK1 KinEASE)
Sequence of IRAK4 enzyme (Q9NWZ3 whole entry): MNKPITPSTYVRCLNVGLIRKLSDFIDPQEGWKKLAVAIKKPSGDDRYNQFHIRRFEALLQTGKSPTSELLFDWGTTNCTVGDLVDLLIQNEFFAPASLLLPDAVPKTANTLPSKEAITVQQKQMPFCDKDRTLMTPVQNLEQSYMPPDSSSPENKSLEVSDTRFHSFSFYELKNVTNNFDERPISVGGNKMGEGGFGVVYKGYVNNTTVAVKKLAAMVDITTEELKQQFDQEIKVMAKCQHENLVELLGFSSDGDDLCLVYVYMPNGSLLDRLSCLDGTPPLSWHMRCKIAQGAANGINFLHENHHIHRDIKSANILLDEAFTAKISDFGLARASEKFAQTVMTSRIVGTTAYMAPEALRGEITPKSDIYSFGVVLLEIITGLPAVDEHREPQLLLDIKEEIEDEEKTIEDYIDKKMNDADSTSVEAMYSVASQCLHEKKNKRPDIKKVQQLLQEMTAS
Experimental: IRAK4 enzyme (Carna Biosciences, Chuo-ku, Kobe, Japan) activity was measured by detecting phosphorylated peptide substrate formation using an antibody against the phosphorylated peptide substrate. This is a time-resolved fluorescence resonance energy transfer (TR-FRET) immunoassay, based on the STK1 KinEASE Assay (Cisbio, Bedford, Mass.). The assay was designed as a simple two-step, endpoint assay (a 5 μl enzyme reaction followed by 5 μl stop and detect Solution) performed in ProxiPlate-384 Plus plates (Perkin Elmer, Waltham, Mass.). […] Compounds diluted in DMSO were spotted into 384 well plates using a Labcyte® Echo 550 Liquid Handling System prior to addition of IRAK4 enzyme and peptide substrate. Reaction solutions were delivered using a Multi-Flo (Bio-Tek Instruments). The enzyme and peptide solution was incubated with compound for 15 minutes at room temp before the reaction was initiated by the addition of ATP. The standard 5 μl reaction mixture contained 500 μM ATP, […] peptide (STK1 Peptide), 0.75 nM of IRAK4 in reaction buffer (50 mM HEPES, pH 7.0, 0.02% NaN3, 0.01% BSA, 0.1 mM Orthovanadate, 5 mM […], 0.025% NP-40, 1 mM DTT). After 120 min of incubation at room temperature, 5 μl of Stop and Detect Solution (1:100 Cryptate labeled anti-phosphorylated peptide antibody solution and 125 nM Tracer in a 50 mM HEPES pH 7.0 detection buffer containing sufficient EDTA) was added. The plate was then further incubated for 60 minutes at room temperature and read on Envision 2103 Multilabeled reader (PerkinElmer) with excitation/emission/FRET emission at 340 nm/615 nm665 nm, respectively. Fluorescence intensities at 615 nm and 665 nm emission wavelengths were expressed as aratio (665 nm/615 nm). Percentage of inhibition was calculated as below: % Inhibition=100×(Ratiosample−Ratio0% Inhibition)/(Ratio100% Inhibition−Ratio0% Inhibition)
The 0% inhibition value comes from control wells lacking inhibitor.

[3] = Homo sapiens, Monocyte, human monocytes, second part of Table 2, compounds 33-343, unit inferred
[4] = human monocytes, second part of Table 2, compounds 33-343, unit inferred
[5] = second part of Table 2, compounds 33-343, unit inferred, read-out: IC50 IRAK4-HTBS

Question: What does the source list for CC(=O)N[C@@H]1CCN(c2nnc(-c3cnc(-c4ccc5cc(C#N)cnn45)cc3NC(C)C)s2)CC1(F)F [Example 168, (R)-N-(1-(5-(6-(3-cyanopyrrolo[1,2-b]pyridazin-7-yl)-4-(isopropylamino)pyridin-3-yl)-1,3,4-thiadiazol-2-yl)-3,3-difluoropiperidin-4-yl)acetamide]?
Answer: EC50 [1, 3]: 8.4 nM; IC50 [2]: 0.65 nM

Question: CC(C)Nc1cc(-c2ccc3cc(C#N)cnn23)ncc1-c1nnc(N2CC[C@](C)(O)[C@H](F)C2)s1 [Example 192, 7-(5-(5-((3R,4S)-3-fluoro-4-hydroxy-4-methylpiperidin-1-yl)-1,3,4-thiadiazol-2-yl)-4-(isopropylamino)pyridin-2-yl)pyrrolo[1,2-b]pyridazine-3-carbonitrile] was tested. Which EC50 [1, 3] did it give?
Answer: 24.6 nM

Question: What about the IC50 [2] of the same molecule?
Answer: 1.21 nM

Question: CC(=O)NC12CCC(c3nnc(-c4cnc(-c5ccc6cc(C#N)cnn56)cc4NC4COC4)s3)(CC1)CC2 [Example 70, N-(4-(5-(6-(3-cyanopyrrolo[1,2-b]pyridazin-7-yl)-4-(oxetan-3-ylamino)pyridin-3-yl)-1,3,4-thiadiazol-2-yl)bicyclo[2.2.2]octan-1-yl)acetamide] was tested. Which EC50 [1, 3] did it give?
Answer: 8.8 nM

Question: What about the IC50 [2] of the same molecule?
Answer: 0.58 nM

Question: CC(=O)N1[C@@H]2COC[C@H]1CN(c1nnc(-c3cnc(-c4ccc5cc(C#N)cnn45)cc3NC(C)C)s1)C2 [Compound 265, 7-(5-(5-((1R,5S)-9-acetyl-3-oxa-7,9-diazabicyclo[3.3.1]nonan-7-yl)-1,3,4-thiadiazol-2-yl)-4-(isopropylamino)pyridin-2-yl)pyrrolo[1,2-b]pyridazine-3-carbonitrile] was tested. Which EC50 ([1]; Homo sapiens, Monocyte) did it give?
Answer: 11.3 nM

Question: And the IC50 [2]?
Answer: 2.43 nM

Question: Which EC50 [1, 4] does the source give for CC(=O)N[C@H]1CC[C@@H](c2nnc(-c3cnc(-c4ccc5cc(C#N)cnn45)cc3NC(C)C)s2)CC1 [Example 127, N-((1s,4s)-4-(5-(6-(3-cyanopyrrolo[1,2-b]pyridazin-7-yl)-4-(isopropylamino)pyridin-3-yl)-1,3,4-thiadiazol-2-yl)cyclohexyl)acetamide] here?
Answer: 9.9 nM

Question: And the IC50 [2, 5]?
Answer: 0.64 nM

Question: How did the EC50 [1, 3] turn out when CC(=O)N[C@H]1CCN(c2nnc(-c3cnc(-c4ccc5cc(C#N)cnn45)cc3NC(C)C)s2)C[C@H]1O [Example 62, N-((3R,4S)-1-(5-(6-(3-cyanopyrrolo[1,2-b]pyridazin-7-yl)-4-(isopropylamino)pyridin-3-yl)-1,3,4-thiadiazol-2-yl)-3-hydroxypiperidin-4-yl)acetamide] was run?
Answer: 12.5 nM

Question: And the IC50 [2]?
Answer: 0.38 nM

Question: With CC(=O)NC1[C@@H]2COC[C@H]1CN(c1nnc(-c3cnc(-c4ccc5cc(C#N)cnn45)cc3NC(C)C)s1)C2 (stereo partly drawn) [Example 193, N-((1R,5S)-7-(5-(6-(3-cyanopyrrolo[1,2-b]pyridazin-7-yl)-4-(isopropylamino)pyridin-3-yl)-1,3,4-thiadiazol-2-yl)-3-oxa-7-azabicyclo[3.3.1]nonan-9-yl)acetamide] as the molecule, how does the EC50 [1, 3] read?
Answer: 4.1 nM

Question: And the IC50 [2]?
Answer: 0.68 nM

Question: CC(=O)N[C@@H]1CCCN(C(=O)c2nnc(-c3cnc(-c4ccc5cc(C#N)cnn45)cc3NC(C)C)s2)C1 [Example 49, (R)-N-(1-(5-(6-(3-cyanopyrrolo[1,2-b]pyridazin-7-yl)-4-(isopropylamino)pyridin-3-yl)-1,3,4-thiadiazole-2-carbonyl)piperidin-3-yl)acetamide] was tested. Which EC50 [1, 3] did it give?
Answer: 34.3 nM

Question: And the IC50 [2]?
Answer: 1.75 nM

Question: Which results are given for CC(C)Nc1cc(-c2ccc3cc(C#N)cnn23)ncc1-c1nnc(CC(C)(C)O)s1 [Example 320, 7-(5-(5-(2-hydroxy-2-methylpropyl)-1,3,4-thiadiazol-2-yl)-4-(isopropylamino)pyridin-2-yl)pyrrolo[1,2-b]pyridazine-3-carbonitrile]?
Answer: EC50 ([1]; Homo sapiens, Monocyte): 68.3 nM; IC50 [2]: 1.18 nM

Question: Which results are given for CC(=O)N[C@@H]1[C@@H]2CC[C@H]1N(c1nnc(-c3cnc(-c4ccc5cc(C#N)cnn45)cc3NC(C)C)s1)C2 [Example 137, N-((1R,4R,7R)-2-(5-(6-(3-cyanopyrrolo[1,2-b]pyridazin-7-yl)-4-(isopropylamino)pyridin-3-yl)-1,3,4-thiadiazol-2-yl)-2-azabicyclo[2.2.1]heptan-7-yl)acetamide]?
Answer: EC50 [1, 3]: 6.5 nM; IC50 [2]: 0.85 nM

Question: With CC(C)Nc1cc(-c2ccc3cc(C#N)cnn23)ncc1-c1nnc(N2CC3(CNC(=O)C3)C2)s1 [Example 163, 7-(4-(isopropylamino)-5-(5-(7-oxo-2,6-diazaspiro[3.4]octan-2-yl)-1,3,4-thiadiazol-2-yl)pyridin-2-yl)pyrrolo[1,2-b]pyridazine-3-carbonitrile] as the molecule, how does the EC50 [1, 3] read?
Answer: 15 nM

Question: And the IC50 [2]?
Answer: 0.54 nM

Question: For CC(C)(O)[C@H]1C[C@@H]1c1nnc(-c2cnc(-c3ccc4cc(C#N)cnn34)cc2NC2COC2)s1 (single isomer, unassigned; isomer 1) [136 Isomer 1], which EC50 [1, 4] is on record?
Answer: 4.2 nM

Question: And the IC50 [2, 5]?
Answer: 0.57 nM

Question: How did the EC50 [1, 3] turn out when CC(=O)N[C@H]1CC[C@H](c2nnc(-c3cnc(-c4ccc5cnc(N[C@@H]6CCCC[C@@H]6N)nn45)cc3NC(C)C)s2)CC1 [Example 50, N-((1r,4r)-4-(5-(6-(2-(((1R,2S)-2-aminocyclohexyl)amino)pyrrolo[2,1-f][1,2,4]triazin-7-yl)-4-(isopropylamino)pyridin-3-yl)-1,3,4-thiadiazol-2-yl)cyclohexyl)acetamide] was run?
Answer: 3.6 nM

Question: And the IC50 [2]?
Answer: 0.92 nM

Question: With CNC(=O)[C@@H]1CCCN1c1nnc(-c2cnc(-c3ccc4cc(C#N)cnn34)cc2NC2COC2)s1 [Compound 332] as the molecule, how does the EC50 [1, 4] read?
Answer: 435 nM

Question: And the IC50 [2, 5]?
Answer: 1.61 nM

Question: CC(C)Nc1cc(-c2ccc3cc(C#N)cnn23)ncc1-c1nnc(C2CCNCC2)s1 [Example 129, 7-(4-(isopropylamino)-5-(5-(piperidin-4-yl)-1,3,4-thiadiazol-2-yl)pyridin-2-yl)pyrrolo[1,2-b]pyridazine-3-carbonitrile] was tested. Which IC50 [2] did it give?
Answer: 0.59 nM

Question: CC(=O)NC12CCC(c3nnc(-c4cnc(-c5ccc6cc(C#N)cnn56)cc4N[C@H](C)C#N)s3)(CC1)CC2 [Example 72, (R)—N-(4-(5-(4-((1-cyanoethyl)amino)-6-(3-cyanopyrrolo[1,2-b]pyridazin-7-yl)pyridin-3-yl)-1,3,4-thiadiazol-2-yl)bicyclo[2.2.2]octan-1-yl)acetamide] was tested. Which IC50 [2] did it give?
Answer: 0.54 nM

Question: How did the IC50 [2] turn out when CC(C)Nc1cc(-c2ccc3cc(C#N)cnn23)ncc1-c1nnc(N2C[C@H]3CC[C@@H](C2)[C@@H]3NC(=O)[C@@H](C)O)s1 [Example 90, (R)—N-((1R,5S,8s)-3-(5-(6-(3-cyanopyrrolo[1,2-b]pyridazin-7-yl)-4-(isopropylamino)pyridin-3-yl)-1,3,4-thiadiazol-2-yl)-3-azabicyclo[3.2.1]octan-8-yl)-2-hydroxypropanamide] was run?
Answer: 1.39 nM

Question: How did the IC50 [2] turn out when CC(=O)N1CCN(C(=O)N[C@@H]2[C@@H]3CC[C@H]2CN(c2nnc(-c4cnc(-c5ccc6cc(C#N)cnn56)cc4NC(C)C)s2)C3)CC1 [Example 104, 4-acetyl-N-((1R,5S,8s)-3-(5-(6-(3-cyanopyrrolo[1,2-b]pyridazin-7-yl)-4-(isopropylamino)pyridin-3-yl)-1,3,4-thiadiazol-2-yl)-3-azabicyclo[3.2.1]octan-8-yl)piperazine-1-carboxamide] was run?
Answer: 0.99 nM

Question: How did the IC50 [2] turn out when CC(C)Nc1cc(-c2ccc3cc(C#N)cnn23)ncc1-c1nnc(N2C[C@H]3CC[C@@H](C2)[C@@H]3NC(=O)N2CCN(C)CC2)s1 [Example 96, N-((1R,5S,8s)-3-(5-(6-(3-cyanopyrrolo[1,2-b]pyridazin-7-yl)-4-(isopropylamino)pyridin-3-yl)-1,3,4-thiadiazol-2-yl)-3-azabicyclo[3.2.1]octan-8-yl)-4-methylpiperazine-1-carboxamide] was run?
Answer: 0.58 nM
